Laboratory results as given in ChEMBL document CHEMBL6121004, “Design, synthesis, and biological evaluation of Ponatinib-based N-Phenylpyrimidine-2-amine derivatives as novel fibroblast growth factor receptor 4 (FGFR4) selective inhibitors” (Eur J Med Chem, 2025).
The source made the active and inactive calls. No cut-off for these calls is given here.

How the values were obtained:
Huh-7 [1] = test: cells; details: Homo sapiens, Huh-7, 72 h
Description: Antiproliferative activity against human Huh-7 cells assessed as inhibition of cell proliferation incubated for 72 hrs by MTT assay

MDA-MB-231 = test: cells; details: Homo sapiens, MDA-MB-231, 72 h
Description: Antiproliferative activity against human MDA-MB-231 cells assessed as inhibition of cell proliferation incubated for 72 hrs by MTT assay

Hep 3B2 [2] = test: cells; details: Homo sapiens, Hep3B, 72 h
Description: Antiproliferative activity against human Hep3B cells assessed as inhibition of cell proliferation incubated for 72 hrs by MTT assay

[3] = molecular target: T1, Fibroblast growth factor receptor 1 (Homo sapiens, UniProt P11362); test: Inhibition of FGFR1 (unknown origin) incubated for 15 mins in presence of ATP
Target sequence in this assay (P11362 whole entry): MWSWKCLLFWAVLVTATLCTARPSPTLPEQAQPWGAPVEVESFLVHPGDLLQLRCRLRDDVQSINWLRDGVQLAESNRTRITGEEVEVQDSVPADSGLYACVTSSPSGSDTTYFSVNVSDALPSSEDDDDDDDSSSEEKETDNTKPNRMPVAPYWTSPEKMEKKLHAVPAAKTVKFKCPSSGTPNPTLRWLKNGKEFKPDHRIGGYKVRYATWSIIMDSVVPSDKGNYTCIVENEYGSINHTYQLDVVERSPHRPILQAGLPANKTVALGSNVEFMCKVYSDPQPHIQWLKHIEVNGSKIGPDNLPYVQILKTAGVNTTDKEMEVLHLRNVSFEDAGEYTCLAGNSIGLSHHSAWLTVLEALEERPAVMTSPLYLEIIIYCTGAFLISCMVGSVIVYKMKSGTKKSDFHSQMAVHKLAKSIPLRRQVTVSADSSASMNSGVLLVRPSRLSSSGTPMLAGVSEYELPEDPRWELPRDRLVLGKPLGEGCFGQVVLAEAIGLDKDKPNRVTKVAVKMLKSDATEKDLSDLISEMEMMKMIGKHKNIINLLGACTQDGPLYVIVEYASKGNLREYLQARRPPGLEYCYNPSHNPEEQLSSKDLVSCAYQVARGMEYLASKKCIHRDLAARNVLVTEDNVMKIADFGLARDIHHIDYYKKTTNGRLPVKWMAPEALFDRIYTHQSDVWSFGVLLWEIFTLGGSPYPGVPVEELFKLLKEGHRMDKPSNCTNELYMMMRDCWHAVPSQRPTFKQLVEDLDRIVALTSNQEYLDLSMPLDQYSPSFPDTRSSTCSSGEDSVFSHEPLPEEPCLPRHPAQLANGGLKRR

[4] = Antiproliferative activity against human L02 cells assessed as inhibition of cell proliferation incubated for 72 hrs by MTT assay; assay type: toxicity, cell-based
[5] = molecular target: Fibroblast growth factor receptor 4 (Homo sapiens) (UniProt P22455); details: dose 10.0 nM
Description: Inhibition of FGFR4 (unknown origin) at 10 nM incubated for 15 mins in presence of ATP relative to control

[6] = molecular target: T1, Fibroblast growth factor receptor 1; details: dose 10.0 nM
Target sequence in this assay (P11362 22-822 limits assumed): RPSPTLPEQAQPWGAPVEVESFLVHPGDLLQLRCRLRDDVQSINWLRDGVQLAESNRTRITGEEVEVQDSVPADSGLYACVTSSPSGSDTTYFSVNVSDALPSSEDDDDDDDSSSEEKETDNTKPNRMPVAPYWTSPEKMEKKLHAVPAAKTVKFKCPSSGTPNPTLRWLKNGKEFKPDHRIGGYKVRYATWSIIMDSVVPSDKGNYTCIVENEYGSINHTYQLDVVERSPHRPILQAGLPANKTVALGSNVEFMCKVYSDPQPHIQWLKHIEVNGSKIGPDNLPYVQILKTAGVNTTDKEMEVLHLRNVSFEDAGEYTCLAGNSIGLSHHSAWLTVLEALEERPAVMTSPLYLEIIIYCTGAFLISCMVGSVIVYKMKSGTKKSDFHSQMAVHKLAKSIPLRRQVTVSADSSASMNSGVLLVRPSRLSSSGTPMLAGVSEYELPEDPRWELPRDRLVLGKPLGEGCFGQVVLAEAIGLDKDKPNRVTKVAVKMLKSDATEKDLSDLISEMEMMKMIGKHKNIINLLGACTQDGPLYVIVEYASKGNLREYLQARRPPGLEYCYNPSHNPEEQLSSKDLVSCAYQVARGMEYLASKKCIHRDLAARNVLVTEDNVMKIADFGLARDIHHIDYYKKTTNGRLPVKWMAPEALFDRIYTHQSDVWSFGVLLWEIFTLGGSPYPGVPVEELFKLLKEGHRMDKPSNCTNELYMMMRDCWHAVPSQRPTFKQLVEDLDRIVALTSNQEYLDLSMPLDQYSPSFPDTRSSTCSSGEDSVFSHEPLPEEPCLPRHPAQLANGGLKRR
Description: Inhibition of FGFR1 (unknown origin) at 10 nM incubated for 15 mins in presence of ATP relative to control

[7] = molecular target: T1, Fibroblast growth factor receptor 1; details: dose 100.0 nM
Target sequence in this assay (P11362 22-822 limits assumed): as above
Description: Inhibition of FGFR1 (unknown origin) at 100 nM incubated for 15 mins in presence of ATP relative to control

[8] = molecular target: Fibroblast growth factor receptor 4 (Homo sapiens) (UniProt P22455); details: dose 100.0 nM
Description: Inhibition of FGFR4 (unknown origin) at 100 nM incubated for 15 mins in presence of ATP relative to control

[9] = GSH reactivity in potassium phosphate buffer at pH 7.4 assessed as half life at 1 uM measured at 2 to 1440 mins by LC-MS/MS analysis; assay type: physicochemical; details: potassium phosphate buffer with GSH, time 2-1440 min
Huh-7 [10] = test: Antitumor activity against human Huh-7 cells xenografted in nude mouse assessed as tumor growth inhibition at 25 mg/kg, ip administered for 15 days; assay type: functional; details: Huh-7, 360 h, time 15 day, read-out: TGI
Hep 3B2 [11] = test: Induction of apoptosis in human Hep3B cells assessed as late apoptotic cells at 0.5 uM incubated for 48 hrs by annexin V-FITC/propidium iodide staining based flow cytometry analysis (reference value: 5.20%); assay type: functional
Huh-7 [12] = test: Induction of apoptosis in human Huh-7 cells assessed as early apoptotic cells at 0.5 uM incubated for 48 hrs by annexin V-FITC/propidium iodide staining based flow cytometry analysis (reference value: 4.59%); assay type: functional
Huh-7 [13] = test: Induction of apoptosis in human Huh-7 cells assessed as necrotic cells at 0.5 uM incubated for 48 hrs by annexin V-FITC/propidium iodide staining based flow cytometry analysis (reference value: 5.20%); assay type: functional
Hep 3B2 [14] = test: Induction of apoptosis in human Hep3B cells assessed as viable cells at 0.5 uM incubated for 48 hrs by annexin V-FITC/propidium iodide staining based flow cytometry analysis (reference value: 84.91%); assay type: functional; details: read-out: Activity
Hep 3B2 [15] = test: Induction of apoptosis in human Hep3B cells assessed as early apoptotic cells at 0.5 uM incubated for 48 hrs by annexin V-FITC/propidium iodide staining based flow cytometry analysis (reference value: 4.69%); assay type: functional
Huh-7 [16] = test: Induction of apoptosis in human Huh-7 cells assessed as viable cells at 0.5 uM incubated for 48 hrs by annexin V-FITC/propidium iodide staining based flow cytometry analysis (reference value: 84.91%); assay type: functional; details: read-out: Activity
Hep 3B2 [17] = test: Induction of apoptosis in human Hep3B cells assessed as necrotic cells at 0.5 uM incubated for 48 hrs by annexin V-FITC/propidium iodide staining based flow cytometry analysis (reference value: 5.20%); assay type: functional
Huh-7 [18] = test: Induction of apoptosis in human Huh-7 cells assessed as late apoptotic cells at 0.5 uM incubated for 48 hrs by annexin V-FITC/propidium iodide staining based flow cytometry analysis (reference value: 5.20%); assay type: functional

Fibroblast growth factor receptor 4 (Homo sapiens), sequence (P22455 22-802 limits assumed): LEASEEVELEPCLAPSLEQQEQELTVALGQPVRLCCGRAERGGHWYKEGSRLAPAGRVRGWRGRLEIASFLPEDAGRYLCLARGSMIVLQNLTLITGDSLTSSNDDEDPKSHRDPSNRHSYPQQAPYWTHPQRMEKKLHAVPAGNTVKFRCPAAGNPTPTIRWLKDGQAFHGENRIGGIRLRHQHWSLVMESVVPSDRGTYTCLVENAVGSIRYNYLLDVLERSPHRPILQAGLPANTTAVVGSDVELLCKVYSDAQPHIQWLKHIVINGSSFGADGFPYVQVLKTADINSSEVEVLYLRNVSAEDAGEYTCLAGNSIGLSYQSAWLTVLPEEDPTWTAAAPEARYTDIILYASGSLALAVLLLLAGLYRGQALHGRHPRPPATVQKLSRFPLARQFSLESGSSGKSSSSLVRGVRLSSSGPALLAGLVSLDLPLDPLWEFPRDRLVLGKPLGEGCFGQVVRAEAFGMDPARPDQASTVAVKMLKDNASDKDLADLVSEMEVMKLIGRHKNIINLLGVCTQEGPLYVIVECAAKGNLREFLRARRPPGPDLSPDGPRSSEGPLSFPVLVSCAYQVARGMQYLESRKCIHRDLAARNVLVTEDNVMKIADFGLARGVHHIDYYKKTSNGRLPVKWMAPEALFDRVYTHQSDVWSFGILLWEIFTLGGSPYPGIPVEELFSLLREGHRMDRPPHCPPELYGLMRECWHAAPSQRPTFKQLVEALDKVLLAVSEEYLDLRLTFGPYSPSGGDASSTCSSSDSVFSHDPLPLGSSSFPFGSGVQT

Row | Structure (SMILES) | IC50 (Huh-7 [1]) | IC50 (MDA-MB-231) | IC50 (Hep 3B2 [2]) | inhibition [6] | inhibition [7] | IC50 at 72 h [4] | also measured
1 | Cc1ccc(C(=O)Nc2ccc(C(=O)N3CCN(C)CC3)c(C(F)(F)F)c2)cc1C#Cc1cnc(Nc2c(C)cccc2NC(=O)/C=C/CN(C)C)nc1 | – | – | – | 2.2% | inactive | – | inhibition [5]: inactive; inhibition [8]: inactive
2 | CC(C)=CC(=O)Nc1cccc(C)c1Nc1ncc(C#Cc2cccc(C(=O)Nc3ccc(CN4CCN(C)CC4)c(C(F)(F)F)c3)c2)cn1 | – | – | – | – | – | – | inhibition [8]: < 10%
3 | CN(C)C/C=C/C(=O)Nc1cc2c(Nc3ccc(F)c(Cl)c3)ncnc2cc1O[C@H]1CCOC1 [AFATINIB] | – | – | – | – | – | – | half-life at 1 µM [9]: 30.1 min
4 | Cc1ccc(C(=O)Nc2ccc(C(=O)N3CCN(C)CC3)c(C)c2)cc1C#Cc1cnc(Nc2c(C)cccc2NC(=O)/C=C/CN(C)C)nc1 | – | – | – | 0.6% | inactive | – | inhibition [5]: inactive; inhibition [8]: inactive
5 | Cc1ccc(C(=O)Nc2ccc(CN3CCN(C)CC3)c(C(F)(F)F)c2)cc1C#Cc1cnc(Nc2c(C)cccc2NC(=O)/C=C/CN(C)C)nc1 | 1.62 µM | 1.25 µM | 0.92 µM | – | – | > 10 µM | IC50 [3]: 0.863 µM
6 | C=CC(=O)Nc1cccc(C)c1Nc1ncc(C#Cc2ccc(C)c(C(=O)Nc3ccc(CN4CCN(C)CC4)c(C(F)(F)F)c3)c2)cn1 | – | – | – | 0.3% | inactive | – | –
7 | C=CC(=O)Nc1cccc(C)c1Nc1ccc(C#Cc2cc(C(=O)Nc3ccc(CN4CCN(C)CC4)c(C(F)(F)F)c3)ccc2C)cn1 | 0.52 µM | 3.53 µM | 0.66 µM | – | – | > 10 µM | IC50 [3]: > 0.5 µM
8 | C=CC(=O)Nc1cccc(C)c1Nc1ncc(C#Cc2cc(C(=O)Nc3ccc(CN4CCN(C)CC4)c(C(F)(F)F)c3)ccc2C)cn1 | 1.63 µM | 4.33 µM | 0.43 µM | – | – | > 10 µM | –
9 | Cc1ccc(C(=O)Nc2ccc(CN3CCN(C)CC3)c(C(F)(F)F)c2)cc1C#Cc1cnc2cccnn12 [PONATINIB] | – | – | – | – | – | 0.18 µM | Activity (Hep 3B2 [11]): 20.3%; Activity (Huh-7 [12]): 2.74%; Activity (Huh-7 [13]): 3.28%; viability at 0.5 µM (Hep 3B2 [14]): 68%; Activity (Hep 3B2 [15]): 5.14%; viability at 0.5 µM (Huh-7 [16]): 75.5%; Activity (Hep 3B2 [17]): 6.56%; Activity (Huh-7 [18]): 18.5%

The next lines start with results.

Row | IC50 (Huh-7 [1]) | IC50 (MDA-MB-231) | IC50 (Hep 3B2 [2]) | inhibition [6] | inhibition [7] | Structure (SMILES) | IC50 at 72 h [4] | also measured
10 | 0.41 µM | 4.01 µM | 0.87 µM | – | – | C=CC(=O)Nc1cccc(Cl)c1Nc1ncc(C#Cc2cc(C(=O)Nc3ccc(CN4CCN(C)CC4)c(C(F)(F)F)c3)ccc2C)cn1 | > 10 µM | IC50 [3]: > 0.5 µM
11 | 0.68 µM | 2.24 µM | 0.77 µM | – | – | C=CC(=O)Nc1ccccc1Nc1ncc(C#Cc2cc(C(=O)Nc3ccc(CN4CCN(C)CC4)c(C(F)(F)F)c3)ccc2C)cn1 | > 10 µM | –
12 | 0.49 µM | 4.26 µM | 0.81 µM | – | – | C=CC(=O)Nc1cccc(C)c1Nc1ncc2cc(-c3c(Cl)c(OC)cc(OC)c3Cl)ccc2n1 | > 10 µM | half-life at 1 µM [9]: 60.1 min; inhibition in vivo at 25 mg/kg (Huh-7 [10]): 61.8%; IC50 [3]: 0.559 µM
13 | – | – | – | inactive | inactive | C/C=C/C(=O)Nc1cccc(C)c1Nc1ncc(C#Cc2cc(C(=O)Nc3ccc(CN4CCN(C)CC4)c(C(F)(F)F)c3)ccc2C)cn1 | – | –
14 | – | – | – | 0.2% | inactive | Cc1ccc(C(=O)Nc2ccc(CN3CCN(C)CC3)c(C(F)(F)F)c2)cc1C#Cc1cnc(Nc2c(C)cccc2NC(=O)CCl)nc1 | – | –
